Experiments:
MCF-7 cells = assay: MTT cell viability assay, MCF-7; format: cell-based, human; settings: Homo sapiens, MCF7, 48 h, read-out: Growth (%) MCF-7
Procedure: (§1) The cell viability assay of each compound was carried out using the MTT assay. Each compound was dissolved in dimethyl sulfoxide (DMSO) at a concentration of 0.01 M. Serial dilutions were prepared with a non-supplemented culture medium. The effect of each compound on the cell viability was determined at two different concentrations (10 and 50 µM) in MCF-7, HTB-54, and HT-29 cells. In addition, the selected compounds were tested at six different concentrations between 0.1–100 µM in MCF-7, T47D, H1299, HTB-54, and 184B5 cells.
(§2) Briefly, 1 × 10^4 tumor cells/well or 2 × 10^4 non-tumorigenic cells/well were grown in 96-well plates for 12 h. Then, these cells were incubated with either DMSO (control) or a different concentration of each of the tested compounds for 48 h. Three hours before the termination point, 20 µL of MTT were added to measure the cellular viability. The resultant formazan crystals were dissolved in 50 µL of DMSO, and the absorbance was measured at 570 and 630 nm. The results are expressed as IC50, the half maximal inhibitory concentration. This value was calculated using OriginPro 8.5.1. software (OriginLab, Northampton, MA, USA) by nonlinear curve fitting. Furthermore, the selectivity index (SI) was calculated as the ratio of the IC50 values determined for the non-malignant and the tumor cells (IC50 (184B5)/IC50 (MCF-7). The data were obtained from at least three independent experiments performed in quadruplicates.

HT-29 cells = assay: MTT cell viability assay, HT-29; format: cell-based; settings: Homo sapiens, 48 h, read-out: Growth (%) HT-29
Procedure: as §1, §2

HTB-54 cells = assay: MTT cell viability assay, HTB-54; format: cell-based; settings: Homo sapiens, HTB-54, 48 h, read-out: Growth (%) HTB-54
Procedure: as §1, §2

SMILES | activity at 10 µM (MCF-7 cells) | activity at 50 µM (MCF-7 cells) | activity at 10 µM (HT-29 cells) | activity at 50 µM (HT-29 cells) | activity at 10 µM (HTB-54 cells) | activity at 50 µM (HTB-54 cells)
O=C(NC(=[Se])Nc1ccc(Cl)cc1)C12CC3CC(CC(C3)C1)C2 [Compound 7e] | 83.9% | 39% | 53.5% | 45.9% | 111% | 36.4%
O=C(NC(=[Se])Nc1ccc(C(F)(F)F)cc1)c1ccco1 [Compound 6d] | 71.7% | 11.9% | 81.5% | 18.7% | 59.4% | 4.6%
O=C(C=Cc1ccccc1)NC(=[Se])Nc1ccc(C(F)(F)F)cc1 [Compound 8d] | 91.1% | 18.5% | 76% | 37.3% | 90% | 41.1%
Cc1ccc(NC(=[Se])NC(=O)c2ccco2)cc1 [Compound 6b] | 64.9% | 5.8% | 87.6% | 48.4% | 73% | 1.6%
Cc1ccc(NC(=[Se])NC(=O)c2cccs2)cc1 [Compound 5b] | 64.2% | 17.5% | 82.8% | 36.8% | 66.8% | 66.7%
O=C(NC(=[Se])Nc1ccccc1)c1ccccc1 [Compound 1a] | 70.5% | 6.6% | 56.9% | 23.4% | 67.8% | 57.1%
O=C(NC(=[Se])Nc1ccc(Cl)cc1)c1ccco1 [Compound 6e] | 62.7% | 11.2% | 75.2% | 31.1% | 84.1% | 4%
Cc1ccc(NC(=[Se])NC(=O)c2cccnc2Cl)cc1 [Compound 4b] | 77.6% | 32.4% | 99.2% | 51.7% | 87% | 64.8%
COc1ccc(NC(=[Se])NC(=O)C23CC4CC(CC(C4)C2)C3)cc1 [Compound 7c] | 91.8% | 24.3% | 59.6% | 34% | 98.4% | 48.3%
O=C(NC(=[Se])Nc1ccc(Cl)cc1)c1cccs1 [Compound 5e] | 77.6% | 20.8% | 78.1% | 37.8% | 73.2% | 58.1%
O=C(NC(=[Se])Nc1ccc(C(F)(F)F)cc1)c1ccccc1Cl [Compound 2d] | 94.2% | 10.4% | 87.1% | 51.7% | 100% | 37.6%
COc1ccc(NC(=[Se])NC(=O)c2cccs2)cc1 [Compound 5c] | 90.7% | 11.8% | 57.5% | 34.6% | 85% | 60.2%
O=C(NC(=[Se])Nc1ccc(C(F)(F)F)cc1)c1cccnc1Cl [Compound 4d] | 67.1% | 48.9% | 103% | 62.2% | 90.5% | 62.2%
O=C(C=Cc1ccccc1)NC(=[Se])Nc1ccc(Cl)cc1 [Compound 8e] | 69.6% | 11.8% | 85.2% | 40.6% | 76.1% | 31.2%
O=C(NC(=[Se])Nc1ccccc1)c1cccs1 [Compound 5a] | 70.3% | 27.4% | 73.5% | 39% | 76.8% | 43.7%
